# Reference: article PMC9268102, “Design, Synthesis and Biological Evaluation of 1,3,5-Triazine Derivatives Targeting hA1 and hA3 Adenosine Receptor” (Molecules, 2022)
# Several values for one entry are separate records, joined by “and”; a condition that tells them apart may be missing. Equal values may be shown once.
# Experiments:
# [1] = molecular target: T1, hA3 AR (Homo sapiens, UniProt P0DMS8); test: Radioligand competition binding assay at hA3 AR; set-up: expressed in transfected cells; host or cells: Hela-A3 cell line; conditions: for Percentage Inhibition (%) at 10 μM, hA3 AR / inhibition at 10 µM: 10 μM compound; for Percentage Inhibition (%) at 10 μM, hA3 AR / inhibition at 10 µM / Ki: [3H]NECA; for inhibition at 10 µM: read-out: Percentage Inhibition (%) at 10 μM, hA3 AR
# T1 sequence (P0DMS8 1-318): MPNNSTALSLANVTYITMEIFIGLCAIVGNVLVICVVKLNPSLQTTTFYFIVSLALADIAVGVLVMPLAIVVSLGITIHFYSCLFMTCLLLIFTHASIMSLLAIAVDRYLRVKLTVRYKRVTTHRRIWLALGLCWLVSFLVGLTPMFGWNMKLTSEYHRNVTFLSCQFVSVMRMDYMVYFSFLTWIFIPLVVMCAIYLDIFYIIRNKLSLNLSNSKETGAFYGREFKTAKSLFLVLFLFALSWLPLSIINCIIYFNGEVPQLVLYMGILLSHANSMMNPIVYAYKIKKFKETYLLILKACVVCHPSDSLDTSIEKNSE
# Method: (§1) All the synthesized compounds were screened with radioligand binding assays at hARs. First, the percentage of inhibition was measured by treatment of each hAR subtype with 10 μM of each compound (Table 1).
# (§2) hA1, hA2A, and hA3 AR competition binding experiments were carried out in a multiscreen GF/C 96-well plate (Millipore, Madrid, Spain) pretreated with binding buffer (Hepes 20 mM, NaCl 100 mM, MgCl2 10 mM, 2 U/mL adenosine deaminase, pH = 7.4 for hA1 AR; Tris-HCl 50 mM, EDTA 1 mM, MgCl2 10 mM, 2 U/mL adenosine deaminase, pH = 7.4 for hA2A AR; and Tris-HCl 50 mM, EDTA 1 mM, MgCl2 5 mM, 2 U/mL adenosine deaminase, pH = 7.4 for hA3 AR, respectively). In each well was incubated 5 µg of membranes from Euroscreen CHO-A1 cell line, 5µg of membranes from Hela-A2A cell line, or 30µg of membranes from Hela-A3 cell line and prepared in laboratory: 1 nM [^3H]-DPCPX (140 Ci/mmol, 1 mCi/Ml, Perkin Elmer NET974001MC) for hA1 AR; 1 nM [^3H]-ZM241385 (50 Ci/mmol, 1 mCi/mL, ARC-ITISA 0884) for hA2A AR; and 10 nM [^3H]-NECA (29.6 Ci/mmol, 1 mCi/mL, Perkin Elmer NET811250UC) for hA3 AR, respectively; and the compounds studied according to standard protocol. Non-specific binding was determined in the presence of R-PIA 10 µM (Sigma P4532) for hA1 AR; of NECA 50 µM (Sigma E2387) for hA2A AR; and of R-PIA 100 µM (Sigma P4532) for hA3 AR, respectively. The reaction mixture (Vt: 200 µL/well) was incubated at 25 °C for 60 min (hA1 AR), 30min (hA2A AR), or 180min (hA3 AR); whereafter it was filtered and washed four times (hA1 and hA2A AR) or six times (hA3 AR) with 250 μL wash buffer (Hepes 20 mM, NaCl 100 mM, MgCl2 10 mM pH = 7.4, for hA1 AR; Tris-HCl 50 mM, EDTA 1 mM, MgCl2 10 mM, pH = 7.4, for hA2A AR; and Tris-HCl 50mM pH = 7.4, for hA3 AR, respectively) before being measured in a microplate beta scintillation counter (MicrobetaTrilux, PerkinElmer, Madrid, Spain).
# [2] = molecular target: T2, hA2B AR (Homo sapiens, UniProt P29275); test: Radioligand competition binding assay at hA2B AR; conditions: 10 μM compound; [3H]DPCPX; HEK-293 cells; read-out: Percentage Inhibition (%) at 10 μM, hA2B AR
# T2 construct: host or cells: HEK-A2B (HEK-293T-A2B) cell line
# T2 sequence (P29275 1-332): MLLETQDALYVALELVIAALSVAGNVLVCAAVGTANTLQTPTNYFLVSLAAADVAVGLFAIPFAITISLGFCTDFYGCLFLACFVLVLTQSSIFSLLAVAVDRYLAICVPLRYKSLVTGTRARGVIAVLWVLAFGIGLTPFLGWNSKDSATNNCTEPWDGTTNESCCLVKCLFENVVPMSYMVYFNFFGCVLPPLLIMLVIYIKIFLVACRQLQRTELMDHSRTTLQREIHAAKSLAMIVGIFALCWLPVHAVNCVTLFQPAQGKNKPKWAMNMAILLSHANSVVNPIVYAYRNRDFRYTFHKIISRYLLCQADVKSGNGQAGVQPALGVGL
# Method: as §1
# hA2B AR competition binding experiments were carried out in a multiscreen GF/C 96-well plate. In each well was incubated 25 µg of membranes from Euroscreen HEK-A2B cell line and prepared in laboratory, 25 nM [^3H]-DPCPX (140 Ci/mmol, 1 mCi/mL, Perkin Elmer NET974001MC) and compounds studied according to standard protocol. Non-specific binding was determined in the presence of NECA 1000 µM (Sigma E2397). The reaction mixture (Vt: 250 µL/well) was incubated at 25°C for 30 min, 200 µL was transferred to GF/C 96-well plate (Millipore, Madrid, Spain), and pretreated with binding buffer (Tris-HCl 50 Mm, EDTA 1 mM, MgCl2 5 mM, Bacitracin […], adenosine deaminase 2 U/Ml, pH = 6.5). It was then filtered and washed four times with 250 μL wash buffer (Tris-HCl 50 mM, EDTA 1 mM, MgCl2 5 mM, pH = 6.5), before being measured in a microplate beta scintillation counter (MicrobetaTrilux, PerkinElmer, Madrid, Spain).
# [3] = molecular target: T3, hA2A AR (Homo sapiens, UniProt P29274); test: Radioligand competition binding assay at hA2A AR; conditions: 10 μM compound, [3H]ZM241385, Hela cells; for inhibition at 10 µM: read-out: Percentage Inhibition (%) at 10 μM, hA2A AR
# T3 construct: expressed in transfected cells; host or cells: Hela-A2A cell line
# Method: as §1, §2
# [4] = molecular target: T4, hA1 AR (Homo sapiens, UniProt P30542); test: Radioligand competition binding assay at hA1 AR; conditions: for Percentage Inhibition (%) at 10 μM, hA1 AR / inhibition at 10 µM: 10 μM compound; for Percentage Inhibition (%) at 10 μM, hA1 AR / inhibition at 10 µM / Ki: [3H]DPCPX, CHO cells; for inhibition at 10 µM: read-out: Percentage Inhibition (%) at 10 μM, hA1 AR; for Selectivity (hA1 AR:hA3 AR): ratio of Ki hA1 AR to Ki hA3 AR
# T4 construct: host or cells: CHO-A1 (CHO cells expressing hA1 AR)
# T4 sequence (P30542 1-326): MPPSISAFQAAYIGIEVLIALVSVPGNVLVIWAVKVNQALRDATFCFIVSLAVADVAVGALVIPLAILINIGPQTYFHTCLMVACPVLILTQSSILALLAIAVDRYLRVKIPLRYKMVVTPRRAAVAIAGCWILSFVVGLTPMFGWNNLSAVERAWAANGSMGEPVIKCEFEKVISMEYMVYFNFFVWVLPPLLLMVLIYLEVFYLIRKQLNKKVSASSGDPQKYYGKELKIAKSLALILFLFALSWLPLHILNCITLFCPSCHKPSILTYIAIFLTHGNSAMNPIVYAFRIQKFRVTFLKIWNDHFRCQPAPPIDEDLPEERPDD
# Method: as §1, §2
# [5] = compared with hydroxyl compound 9a
# T3 sequence (P29274 whole entry): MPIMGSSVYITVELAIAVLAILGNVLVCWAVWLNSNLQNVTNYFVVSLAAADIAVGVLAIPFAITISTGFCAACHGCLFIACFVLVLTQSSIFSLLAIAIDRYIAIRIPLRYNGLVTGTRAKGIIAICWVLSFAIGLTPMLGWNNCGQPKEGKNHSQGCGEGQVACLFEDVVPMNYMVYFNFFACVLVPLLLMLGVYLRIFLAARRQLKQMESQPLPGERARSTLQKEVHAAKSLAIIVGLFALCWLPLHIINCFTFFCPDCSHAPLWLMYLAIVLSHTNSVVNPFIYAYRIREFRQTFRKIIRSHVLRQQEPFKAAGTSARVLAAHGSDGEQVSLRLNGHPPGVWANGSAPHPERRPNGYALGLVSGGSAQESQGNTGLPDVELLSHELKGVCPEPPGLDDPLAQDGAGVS
"Percentage Inhibition (%) at 10 μM, hA3 AR [1] [%]",inhibition at 10 µM [1] [%],Ki [1] [µM],"Improvement of binding affinity at hA3 AR [1, 5] [fold]",inhibition at 10 µM [2] [%],inhibition at 10 µM [3] [%],"Percentage Inhibition (%) at 10 μM, hA1 AR [4] [%]",inhibition at 10 µM [4] [%],Ki [4] [µM],"Improvement of binding affinity at hA1 AR [4, 5]",Selectivity (hA1 AR:hA3 AR) [4],"Percentage Inhibition (%) at 10 μM, hA2A AR ([3]; 10 µM) [%]",SMILES
97 ± 1,> 90,0.0133,~5,65 ± 2,83 ± 1,95 ± 1,> 90,0.0781,about 2 fold,5.87,,"COc1ccc(-c2nc(N)nc(Nc3ccc(OC)c(F)c3)n2)cc1 [Compound 11a, N^2-(3-fluoro-4-methoxyphenyl)-6-(4-methoxyphenyl)-1,3,5-triazine-2,4-diamine]"
95 ± 1,> 95,0.661,,90 ± 1,> 95,99 ± 1,> 95,0.0579,,0.0875,94 ± 3,"COc1cc(Nc2nc(N)nc(-c3ccc(O)cc3)n2)ccc1Cl [Compound 9c, 4-{4-amino-6-[(4-chloro-3-methoxyphenyl)amino]-1,3,5-triazin-2-yl}phenol]"
95 ± 4,> 90,0.0566,,56 ± 1,49 ± 1,98 ± 1,> 90,0.0983,,1.7 and 1.74,,"COc1ccc(Nc2nc(N)nc(-c3ccc(F)cc3)n2)cc1F [Compound 11b, N^2-(3-fluoro-4-methoxyphenyl)-6-(4-fluorophenyl)-1,3,5-triazine-2,4-diamine]"
